According to ChEMBL document CHEMBL5649166, “RIP3 induces apoptosis independent of pronecrotic kinase activity” (Mol Cell, 2014):

Assays:
[1] = molecular target: High affinity nerve growth factor receptor (Homo sapiens) (UniProt P04629); assay: Inhibition of human TRKA using poly[Glu:Tyr] (4:1) as substrate at 1 uM in presence of 32P-ATP by Hotspot assay relative to control
[2] = molecular target: Serine/threonine-protein kinase PAK 3 (Homo sapiens) (UniProt O75914); assay: Inhibition of human PAK3 using RRRLSFAEPG as substrate at 1 uM in presence of 32P-ATP by Hotspot assay relative to control; values are per cent of control
[3] = molecular target: Ribosomal protein S6 kinase alpha-5 (Homo sapiens) (UniProt O75582); assay: Inhibition of human MSK1/RPS6KA5 using GRPRTSSFAEG as substrate at 1 uM in presence of 32P-ATP by Hotspot assay relative to control; values are per cent of control
[4] = molecular target: CDK6/cyclin D1 (Homo sapiens) (UniProt P24385+Q00534); assay: Inhibition of human CDK6/cyclin D1 using RB Protein as substrate at 1 uM in presence of 32P-ATP by Hotspot assay relative to control; values are per cent of control
[5] = molecular target: Fibroblast growth factor receptor 3 (Homo sapiens) (UniProt P22607); assay: Inhibition of human FGFR3 using poly[Glu:Tyr] (4:1) as substrate at 1 uM in presence of 32P-ATP by Hotspot assay relative to control; values are per cent of control
[6] = molecular target: Homeodomain-interacting protein kinase 2 (Homo sapiens) (UniProt Q9H2X6); assay: Inhibition of human HIPK2 using myelin basic protein as substrate at 1 uM in presence of 32P-ATP by Hotspot assay relative to control; values are per cent of control
[7] = molecular target: T1, Mitogen-activated protein kinase kinase kinase 3 (Homo sapiens) (UniProt Q99759); assay: Inhibition of human MEKK3 using myelin basic protein as substrate at 1 uM in presence of 32P-ATP by Hotspot assay relative to control; values are per cent of control
T1 sequence (whole entry): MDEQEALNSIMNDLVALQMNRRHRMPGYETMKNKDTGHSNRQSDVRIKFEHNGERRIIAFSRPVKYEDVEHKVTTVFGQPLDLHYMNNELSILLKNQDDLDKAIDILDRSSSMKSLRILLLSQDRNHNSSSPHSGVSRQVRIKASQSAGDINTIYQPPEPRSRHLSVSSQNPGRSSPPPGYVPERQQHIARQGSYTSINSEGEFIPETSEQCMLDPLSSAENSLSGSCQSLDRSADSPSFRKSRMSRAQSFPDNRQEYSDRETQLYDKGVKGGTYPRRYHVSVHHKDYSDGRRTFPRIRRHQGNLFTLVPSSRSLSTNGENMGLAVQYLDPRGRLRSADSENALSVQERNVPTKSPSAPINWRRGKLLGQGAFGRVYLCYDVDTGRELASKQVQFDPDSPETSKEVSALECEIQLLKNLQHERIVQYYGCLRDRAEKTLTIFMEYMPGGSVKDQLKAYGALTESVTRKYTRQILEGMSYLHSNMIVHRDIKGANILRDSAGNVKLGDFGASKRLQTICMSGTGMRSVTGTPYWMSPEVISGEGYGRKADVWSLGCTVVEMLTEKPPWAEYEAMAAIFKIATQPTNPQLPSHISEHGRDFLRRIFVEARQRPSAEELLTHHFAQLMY

[8] = molecular target: T2, Serine/threonine-protein kinase Nek11 (Homo sapiens) (UniProt Q8NG66); assay: Inhibition of human NEK11 using myelin basic protein as substrate at 1 uM in presence of 32P-ATP by Hotspot assay relative to control; values are per cent of control
T2 sequence (whole entry): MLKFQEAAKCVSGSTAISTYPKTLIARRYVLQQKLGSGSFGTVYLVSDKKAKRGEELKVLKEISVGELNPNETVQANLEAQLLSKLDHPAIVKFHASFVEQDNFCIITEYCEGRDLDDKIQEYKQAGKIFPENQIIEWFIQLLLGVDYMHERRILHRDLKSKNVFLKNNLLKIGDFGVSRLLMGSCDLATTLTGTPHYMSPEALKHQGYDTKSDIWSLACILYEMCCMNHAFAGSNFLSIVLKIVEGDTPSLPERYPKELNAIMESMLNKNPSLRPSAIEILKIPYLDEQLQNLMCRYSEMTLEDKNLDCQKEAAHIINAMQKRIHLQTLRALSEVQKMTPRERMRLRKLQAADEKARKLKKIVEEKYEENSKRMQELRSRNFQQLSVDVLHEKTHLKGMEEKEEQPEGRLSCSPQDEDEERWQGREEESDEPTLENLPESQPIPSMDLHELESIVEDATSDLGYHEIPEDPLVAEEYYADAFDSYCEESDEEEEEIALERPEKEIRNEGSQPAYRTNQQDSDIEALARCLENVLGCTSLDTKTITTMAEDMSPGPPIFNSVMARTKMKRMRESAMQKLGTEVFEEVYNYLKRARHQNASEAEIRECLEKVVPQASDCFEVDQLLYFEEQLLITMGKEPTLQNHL

[9] = molecular target: T3, Serine/threonine-protein kinase Sgk3 (Homo sapiens) (UniProt Q96BR1); assay: Inhibition of human SGK3/SGKL using KGSGSGRPRTSSFAEG as substrate at 1 uM in presence of 32P-ATP by Hotspot assay relative to control; values are per cent of control
T3 sequence (whole entry): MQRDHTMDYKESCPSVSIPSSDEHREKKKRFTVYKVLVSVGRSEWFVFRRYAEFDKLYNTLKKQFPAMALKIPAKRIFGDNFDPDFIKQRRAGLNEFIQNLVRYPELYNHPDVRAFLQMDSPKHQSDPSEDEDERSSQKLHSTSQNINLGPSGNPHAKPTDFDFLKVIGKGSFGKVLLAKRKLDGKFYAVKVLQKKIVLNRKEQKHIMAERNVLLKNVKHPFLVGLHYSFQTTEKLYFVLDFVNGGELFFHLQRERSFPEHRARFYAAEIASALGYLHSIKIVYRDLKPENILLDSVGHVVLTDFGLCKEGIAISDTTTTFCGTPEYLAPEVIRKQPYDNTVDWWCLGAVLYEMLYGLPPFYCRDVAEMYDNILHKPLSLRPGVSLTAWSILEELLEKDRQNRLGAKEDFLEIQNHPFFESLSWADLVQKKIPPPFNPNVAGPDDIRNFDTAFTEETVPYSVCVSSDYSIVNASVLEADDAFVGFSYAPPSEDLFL

Ribosomal protein S6 kinase alpha-5 (Homo sapiens), sequence (O75582 whole entry, looked up): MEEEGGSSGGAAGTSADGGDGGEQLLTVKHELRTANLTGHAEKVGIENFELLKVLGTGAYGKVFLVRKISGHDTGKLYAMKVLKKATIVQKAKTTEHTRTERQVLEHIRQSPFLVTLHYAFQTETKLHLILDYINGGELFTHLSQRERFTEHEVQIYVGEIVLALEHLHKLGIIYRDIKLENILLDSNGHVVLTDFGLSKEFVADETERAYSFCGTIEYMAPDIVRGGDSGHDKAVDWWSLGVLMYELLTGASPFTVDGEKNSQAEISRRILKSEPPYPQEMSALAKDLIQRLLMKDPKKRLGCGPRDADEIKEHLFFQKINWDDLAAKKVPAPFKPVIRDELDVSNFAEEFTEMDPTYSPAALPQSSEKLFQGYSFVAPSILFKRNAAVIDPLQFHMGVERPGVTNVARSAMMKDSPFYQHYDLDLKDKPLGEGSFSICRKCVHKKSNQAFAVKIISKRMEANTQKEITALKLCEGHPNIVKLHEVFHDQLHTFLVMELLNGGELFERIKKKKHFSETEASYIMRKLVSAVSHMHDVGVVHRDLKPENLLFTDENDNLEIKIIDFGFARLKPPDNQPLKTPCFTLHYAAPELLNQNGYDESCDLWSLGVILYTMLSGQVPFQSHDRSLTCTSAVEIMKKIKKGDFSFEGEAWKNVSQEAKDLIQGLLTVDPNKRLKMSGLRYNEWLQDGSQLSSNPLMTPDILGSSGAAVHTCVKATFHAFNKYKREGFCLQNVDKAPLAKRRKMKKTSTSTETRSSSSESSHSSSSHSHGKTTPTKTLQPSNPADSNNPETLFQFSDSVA
Fibroblast growth factor receptor 3 (Homo sapiens), sequence (P22607 23-806 limits assumed): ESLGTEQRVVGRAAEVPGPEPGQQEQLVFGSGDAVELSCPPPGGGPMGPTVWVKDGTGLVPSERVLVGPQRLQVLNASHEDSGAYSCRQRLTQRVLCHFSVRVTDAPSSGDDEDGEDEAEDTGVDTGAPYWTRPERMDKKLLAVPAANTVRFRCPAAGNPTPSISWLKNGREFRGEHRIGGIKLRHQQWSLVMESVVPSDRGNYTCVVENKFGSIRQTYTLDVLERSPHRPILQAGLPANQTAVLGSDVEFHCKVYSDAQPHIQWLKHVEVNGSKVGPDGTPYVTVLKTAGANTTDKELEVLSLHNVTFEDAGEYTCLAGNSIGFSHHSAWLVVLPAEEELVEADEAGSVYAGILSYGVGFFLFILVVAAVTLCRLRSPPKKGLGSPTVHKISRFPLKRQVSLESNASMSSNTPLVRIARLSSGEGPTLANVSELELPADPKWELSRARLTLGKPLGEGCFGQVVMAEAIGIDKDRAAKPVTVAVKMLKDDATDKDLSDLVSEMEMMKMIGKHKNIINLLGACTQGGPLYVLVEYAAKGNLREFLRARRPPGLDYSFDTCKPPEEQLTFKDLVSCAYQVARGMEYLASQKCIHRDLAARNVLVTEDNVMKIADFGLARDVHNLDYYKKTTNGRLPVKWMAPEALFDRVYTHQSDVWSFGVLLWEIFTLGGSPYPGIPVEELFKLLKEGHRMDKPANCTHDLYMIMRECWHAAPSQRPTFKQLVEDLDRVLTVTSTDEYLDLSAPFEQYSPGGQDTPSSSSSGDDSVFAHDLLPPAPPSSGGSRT
Serine/threonine-protein kinase PAK 3 (Homo sapiens), sequence (O75914 whole entry, looked up): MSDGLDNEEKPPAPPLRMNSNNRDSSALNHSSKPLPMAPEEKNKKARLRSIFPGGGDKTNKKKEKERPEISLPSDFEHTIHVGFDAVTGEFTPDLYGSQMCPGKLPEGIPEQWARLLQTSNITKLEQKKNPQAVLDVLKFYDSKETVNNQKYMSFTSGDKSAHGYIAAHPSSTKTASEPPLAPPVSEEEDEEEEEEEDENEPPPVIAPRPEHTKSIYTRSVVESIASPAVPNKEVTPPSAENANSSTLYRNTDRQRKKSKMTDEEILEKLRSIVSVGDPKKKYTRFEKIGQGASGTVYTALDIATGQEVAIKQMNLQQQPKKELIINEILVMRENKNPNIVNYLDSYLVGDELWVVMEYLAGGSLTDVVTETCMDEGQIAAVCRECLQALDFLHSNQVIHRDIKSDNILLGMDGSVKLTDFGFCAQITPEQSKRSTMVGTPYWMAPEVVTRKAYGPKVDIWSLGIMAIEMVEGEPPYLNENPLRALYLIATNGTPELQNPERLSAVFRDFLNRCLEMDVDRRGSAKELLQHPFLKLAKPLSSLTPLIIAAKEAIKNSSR
Homeodomain-interacting protein kinase 2 (Homo sapiens), sequence (Q9H2X6 whole entry, looked up): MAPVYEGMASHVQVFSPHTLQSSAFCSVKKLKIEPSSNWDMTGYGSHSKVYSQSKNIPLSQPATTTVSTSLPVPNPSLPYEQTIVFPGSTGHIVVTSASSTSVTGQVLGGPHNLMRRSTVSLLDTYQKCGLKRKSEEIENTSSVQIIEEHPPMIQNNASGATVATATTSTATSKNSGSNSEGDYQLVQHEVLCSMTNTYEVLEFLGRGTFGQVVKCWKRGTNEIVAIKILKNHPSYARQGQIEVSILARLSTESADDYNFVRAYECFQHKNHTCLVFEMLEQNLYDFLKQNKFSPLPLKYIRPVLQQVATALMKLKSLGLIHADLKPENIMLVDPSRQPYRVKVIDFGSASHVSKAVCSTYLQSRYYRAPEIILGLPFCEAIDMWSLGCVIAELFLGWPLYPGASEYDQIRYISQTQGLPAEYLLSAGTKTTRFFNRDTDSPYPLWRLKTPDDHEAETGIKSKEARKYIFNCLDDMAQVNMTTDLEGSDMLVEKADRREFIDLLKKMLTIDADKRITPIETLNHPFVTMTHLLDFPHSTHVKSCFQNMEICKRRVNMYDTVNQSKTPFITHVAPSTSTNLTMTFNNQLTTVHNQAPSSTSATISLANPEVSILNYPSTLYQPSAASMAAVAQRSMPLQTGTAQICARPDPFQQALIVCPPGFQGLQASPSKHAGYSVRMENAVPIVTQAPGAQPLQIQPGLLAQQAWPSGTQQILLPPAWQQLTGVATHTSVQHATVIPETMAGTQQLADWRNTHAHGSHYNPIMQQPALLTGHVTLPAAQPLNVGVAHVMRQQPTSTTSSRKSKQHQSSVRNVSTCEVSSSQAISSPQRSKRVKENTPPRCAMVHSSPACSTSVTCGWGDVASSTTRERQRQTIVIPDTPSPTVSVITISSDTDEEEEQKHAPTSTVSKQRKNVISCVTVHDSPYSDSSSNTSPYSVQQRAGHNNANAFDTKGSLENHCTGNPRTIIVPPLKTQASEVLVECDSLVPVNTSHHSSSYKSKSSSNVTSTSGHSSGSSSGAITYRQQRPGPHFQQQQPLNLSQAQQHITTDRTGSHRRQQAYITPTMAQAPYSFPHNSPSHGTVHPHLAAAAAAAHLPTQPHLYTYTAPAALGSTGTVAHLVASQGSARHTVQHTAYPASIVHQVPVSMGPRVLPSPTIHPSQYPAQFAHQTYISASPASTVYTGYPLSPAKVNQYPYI
High affinity nerve growth factor receptor (Homo sapiens), sequence (P04629 33-796 limits assumed): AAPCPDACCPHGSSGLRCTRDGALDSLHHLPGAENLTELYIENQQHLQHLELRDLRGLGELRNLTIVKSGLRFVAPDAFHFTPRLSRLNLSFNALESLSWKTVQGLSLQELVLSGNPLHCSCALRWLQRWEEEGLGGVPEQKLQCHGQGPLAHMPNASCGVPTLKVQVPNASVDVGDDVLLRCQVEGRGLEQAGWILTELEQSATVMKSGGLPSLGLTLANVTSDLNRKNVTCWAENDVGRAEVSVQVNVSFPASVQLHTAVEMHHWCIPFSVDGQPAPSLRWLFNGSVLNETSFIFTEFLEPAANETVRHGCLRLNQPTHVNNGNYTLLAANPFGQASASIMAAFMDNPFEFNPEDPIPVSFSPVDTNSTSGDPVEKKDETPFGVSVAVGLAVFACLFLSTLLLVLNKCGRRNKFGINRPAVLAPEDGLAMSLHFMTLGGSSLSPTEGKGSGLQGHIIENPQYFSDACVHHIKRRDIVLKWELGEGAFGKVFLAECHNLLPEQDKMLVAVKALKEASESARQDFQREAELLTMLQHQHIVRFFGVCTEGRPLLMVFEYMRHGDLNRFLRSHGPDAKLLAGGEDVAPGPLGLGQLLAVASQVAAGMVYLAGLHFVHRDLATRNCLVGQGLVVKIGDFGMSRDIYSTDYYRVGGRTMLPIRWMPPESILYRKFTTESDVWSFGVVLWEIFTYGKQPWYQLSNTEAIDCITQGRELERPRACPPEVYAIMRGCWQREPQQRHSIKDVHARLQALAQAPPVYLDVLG

| SMILES | inhibition [1] | residual activity [2] | residual activity [3] | residual activity [4] | residual activity [5] | residual activity [6] | residual activity [7] | residual activity [8] | residual activity [9] |
| --- | --- | --- | --- | --- | --- | --- | --- | --- | --- |
| CC(C)S(=O)(=O)c1ccc2nccc(Nc3ccc4scnc4c3)c2c1 | 89.3% | 97.8% | 97.9% | 101% | 94.3% | 101% | 92.3% | 89.5% | 106% |
| Cc1cc(-c2cnc(N)c3c(-c4ccc5scnc5c4)csc23)n(C)n1 | 84.7% | 96.6% | 97.4% | 98.2% | 65% | 95.9% | 95% | 97.3% | 97.9% |
| CNC(=O)c1ccc2c(c1)ncn2-c1ccc(CC(=O)OC(C)(C)C)cc1 | 79.5% | 105% | 89.4% | 96.6% | 65.3% | 88.1% | 96% | 102% | 96.7% |
